# Results as given in US20030236218A1, “Aryl phosphate derivatives of d4T with selective activity against adenovirus and HIV” (priority 2002, published 2003).
# Like-named read-outs stand apart in the source and are kept apart here.
# Legend:
# [1] = rats, cited from earlier work
# [2] = Stability in simulated gastric fluid; format: in vitro ADME; conditions: 100 μM, 37° C., 8 hours, listed as d4T-5′-[p-bromophenyl methoxyalaninyl phosphate]
# Description: (§1) The spiked fluids were then placed in a 37° C. water bath. At a predetermined time, 100 μI aliquots of the spiked gastric or intestinal fluid were extracted by adding 400 μl of acetone as discussed above.
# [3] = Stability in simulated intestinal fluid; format: in vitro ADME; conditions: 100 μM, 37° C.
# Description: as §1
# Stability in plasma = format: in vitro ADME
# Description: Plasma samples (200 μL) were mixed 1:4 with acetone (800 μL) and vortexed for at least 30 seconds. Following centrifugation, the supernatant was transferred into a clean tube and was dried under nitrogen. A 50 μL solution of 50% methanol in 200 mM HCl was used to reconstitute the extraction residue, and 40 μL was injected into the HPLC.
# The whole blood samples were placed in a 37° C. water bath, while plasma samples were stored at −20° C. At a predetermined time, an aliquot (100 μl) of spiked whole blood or plasma was extracted by adding 400 μl of acetone to induce precipitation of proteins, as described above.
# [4] = mice, cited from earlier work
# skin fibroblasts = assay: Cytotoxicity in skin fibroblasts (plaque assay); format: cell-based; conditions: ADV plaque formation assay
# Description: Plaque formation assays. Plaque assays were used to examine the activity of the compounds against non-HIV viruses. The skin fibroblast cell line SF (ATCC CRL-2097) was used as a target for AD169, Adenovirus Type 5. […] cell line (ATCC CCL-81) was used as a target for HSV HF and G. The HEP-2 cell line (ATCC CCL-23) was used as a target for the RSV strain Long. These cell lines were cultured at 1×10^5 cells/well in 24-well (all but ECHO 30-infected SF) or 6-well (ECHO 30-infected SF) tissue culture plates with 0.9% methylcellulose or 0.4% SeaPlaque agarose semisolid support. Minimum Essential Medium (MEM) with Earle's salts (Gibco), L-glutamine, non-essential amino acids, 2% heat-inactivated fetal bovine serum, 1% penicillin/streptomycin, and 0.05% gentamicin served as the culture medium. The incubation times were 3 days for HF, G, ECHO 30, and Long; and 7 days for AD169 and Adenovirus Type 5. […] Percent inhibition of plaque formation was calculated by comparing the plaque numbers from the test substance-treated infected cells with the plaque numbers from untreated infected cells (i.e., virus controls). The IC50 values were determined using the Statview statistics program (SAS Institute, Inc., Cary, N.C.).
# [5] = Stability in plasma in the presence of selective esterase inhibitors; conditions: 250 μM
# [6] = cats; twice daily hard gelatin capsules 25 mg/kg -100 mg/kg; cumulative dose levels as high as 8.4 g/kg; cited from earlier work
# [7] = intraperitoneally or orally for up to 8 consecutive weeks, cumulative dose levels as high as 6.4 g/kg
# [8] = single intraperitoneal or oral bolus dose levels as high as 500 mg/kg
compound,measurement,setting,value
"COC(=O)C(C)NP(=O)(OC[C@@H]1C=C[C@H](n2cc(C)c(=O)[nH]c2=O)O1)Oc1ccc(Br)cc1 (stereo partly drawn) [Compound 113, 5′-[4-Bromophenyl methoxylaninylphosphate]-2′, 3′-didehydro-3′-deoxy thymidine]",toxicity on daily administration,[1]; [7],not associated with any detectable toxicity
same,acute or subacute toxicity,[1]; [8],very well tolerated without any detectable acute or subacute toxicity
same,stability in gastric fluid (in words),[2],relatively stable
same,stability in intestinal fluid (in words),[3],not stable
same,decomposed in intestinal fluid,[3]; within 2 hours,approximately 94%
same,time to complete decomposition in plasma,Stability in plasma; 250 μM,≤ 30 min
same,decomposed following incubation with plasma,"Stability in plasma; 250 μM, after 5 minutes",over 95%
same,stability in plasma (in words),"Stability in plasma; spiked plasma, 250 μM compound 113, 100 μM Ala-d4T-MP (followed for 1 day)",very unstable
same,toxicity on daily administration,[4]; [7],not associated with any detectable toxicity
same,acute or subacute toxicity,[4]; [8],very well tolerated without any detectable acute or subacute toxicity
same,cytotoxicity (in words),skin fibroblasts,without any evidence of cytotoxicity even at 100 μM
same,mean percent hydrolysis in plasma,"[5]; EDTA (1 mM), arylesterase, 5 min",99%
same,mean percent hydrolysis in plasma,"[5]; EDTA (1 mM), arylesterase, 10 min",100%
same,mean percent hydrolysis in plasma,"[5]; EDTA (1 mM), arylesterase, 15 min",100%
same,mean percent hydrolysis in plasma,"[5]; EDTA (1 mM), arylesterase, 30 min",100%
same,mean percent hydrolysis in plasma,"[5]; EDTA (1 mM), arylesterase, 60 min",100%
same,mean percent hydrolysis in plasma,"[5]; EDTA (1 mM), arylesterase, 120 min",100%
same,mean percent hydrolysis in plasma,"[5]; No inhibitor, 5 min",95%
same,mean percent hydrolysis in plasma,"[5]; No inhibitor, 10 min",98%
same,mean percent hydrolysis in plasma,"[5]; No inhibitor, 15 min",99%
same,mean percent hydrolysis in plasma,"[5]; No inhibitor, 30 min",100%
same,mean percent hydrolysis in plasma,"[5]; No inhibitor, 60 min",100%
same,mean percent hydrolysis in plasma,"[5]; No inhibitor, 120 min",100%
same,mean percent hydrolysis in plasma,"[5]; Paraoxon (0.1 mM), cholinesterase & carboxylesterase, 5 min",0%
same,mean percent hydrolysis in plasma,"[5]; Paraoxon (0.1 mM), cholinesterase & carboxylesterase, 10 min",2%
same,mean percent hydrolysis in plasma,"[5]; Paraoxon (0.1 mM), cholinesterase & carboxylesterase, 15 min",2%
same,mean percent hydrolysis in plasma,"[5]; Paraoxon (0.1 mM), cholinesterase & carboxylesterase, 30 min",2%
same,mean percent hydrolysis in plasma,"[5]; Paraoxon (0.1 mM), cholinesterase & carboxylesterase, 60 min",3%
same,mean percent hydrolysis in plasma,"[5]; Paraoxon (0.1 mM), cholinesterase & carboxylesterase, 120 min",24%
same,mean percent hydrolysis in plasma,"[5]; Physostigmine (0.1 mM), cholinesterase, 5 min",43%
same,mean percent hydrolysis in plasma,"[5]; Physostigmine (0.1 mM), cholinesterase, 10 min",65%
same,mean percent hydrolysis in plasma,"[5]; Physostigmine (0.1 mM), cholinesterase, 15 min",76%
same,mean percent hydrolysis in plasma,"[5]; Physostigmine (0.1 mM), cholinesterase, 30 min",89%
same,mean percent hydrolysis in plasma,"[5]; Physostigmine (0.1 mM), cholinesterase, 60 min",100%
same,mean percent hydrolysis in plasma,"[5]; Physostigmine (0.1 mM), cholinesterase, 120 min",100%
same,tolerability of four-week treatment course,[6],very well tolerated
